Reference: US20240109912A1, “TRICYCLIC PYRIMIDINES AS CYCLIN-DEPENDENT KINASE 7 (CDK7) INHIBITORS” (JANSSEN PHARMACEUTICA NV, priority 2020, published 2024)
Values joined by “and” are separate entries in the source; they are usually repeats but may differ in a detail not shown here. Identical values can stand only once. Like-named read-outs stand apart in the source and are kept apart here.

What was measured:
[1] = test system: RNA polymerase II Serine 5 phosphorylation (CDK7) in A549 cells
From the text: To evaluate inhibition of CDK7 kinase activity, a 384-well automated imaging assay was used. This assay detects Serine 5 phosphorylation on a unique heptapeptide sequence in the C-terminal domain of Rpb1 subunit of RNA polymerase II, the downstream substrate of CDK7. This heptapeptide sequence is repeated up to 52 times in the CTD of Rpb1.
RNA Polymerase II Serine 5 phosphorylation was detected using a specific rabbit Phospho-Rpb1 CTD (Ser5) antibody. A549 adenocarcinoma human alveolar basal epithelial cells were seeded in 20 μl medium (DMEM supplemented with 1% Fetal Bovine Serum (heat inactivated 30′ 56° C.), 2 mM L-glutamine, 50 U/ml penicillin 50 μg/ml streptomycin, 1 mM sodium pyruvate and 50 mM hepes) at 1000 cells/well and cultured in poly-D-lysine coated μclear 384 black plates for 20 hours at 37° C. and 5% CO2.
After incubation cells were challenged with compound for 3 hours at 37° C. and 5% CO2. DMSO was used as high control and as low control 10 μM of the following reference compound was used:
40 nl of test compounds and controls were spotted in cell plates using Echo Liquid Handler (Echo 550, Labcyte). Incubation was followed by 20 minutes fixation with 20 μl 10% formaldehyde at room temperature. Medium/formaldehyde solution was removed, plates were washed 3 times with 30 μl D-PBS (w/o Ca^2+ and Ma^2+) and permeabilization was done by adding 20 μl ice cold methanol for 20 minutes. Cells were washed again 3 times with 30 μl D-PBS and 20 μl blocking buffer (25 ml fetal bovine serum in 500 ml D-PBS) was added for 1 hour.
After removing blocking buffer 20 μl 1/1000 primary antibody rabbit Phospho-Rpb1 CTD (Ser5) antibody was added which binds to the phosphorylated Serine5 of the heptapeptide sequences in the CTD of Rpb1. […] Last, plates were washed 2 times with 30 μl D-PBS and wells were filled with 40 μL D-PBS, plates were sealed (Thermowell sealing tape) and stored at 4° C. until reading. Plates were read with Opera Phenix (Perkin Elmer) with 10× air objective. Data were calculated and analyzed in Phaedra.
IC50 values were calculated using the following formula
Average value of all HC's and all LC's are used for normalizations.
% Effect=100−(sample-LC)/(HC-LC)×100
% Control=(sample/HC)×100
From this an IC50 value can be obtained. An estimate of the slope of the plot in terms of the Hill coefficient is also obtained.

[2] = biological target: CDK7/cyclinH/MAT1 trimeric complex (Homo sapiens (Human), UniProt P50613); assay: In vitro CDK7 assay, potency of irreversible covalent inhibitors (kinact/KI)
[3] = test system: RNA polymerase II Serine 5 phosphorylation in A549 cells overexpressing CDK7 mutant (C312S); assay: Imaging-based cellular RNA PolII Ser5 phosphorylation assay in A549 cells overexpressing CDK7-mutant (C312S); assay type: cell-based, human; conditions: for IC50: Homo sapiens, A549, A549 cells overexpressing CDK7 mutant (C312S), read-out: CDK7_ A549 mutant hCDK7(pIC50) (converted)
In short: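 A stably transduced A549 pool overexpressing CDK7 C312S, a mutant that blocks covalent binding at Cys312, while retaining endogenous wild-type CDK7 was used. Ser5 phosphorylation was measured by imaging, and IC50 values were derived.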

[4] = read-out: CDK7 (kinact, s^−1), Table B
[5] = read-out: CDK7 (kinact/KI, M^−1*s^−1), Table B
[6] = CDK7 (20 nM enz.) (KI, μM), 20 nM enz.
[7] = read-out: CDK7 (20 nM enz.) (kinact, s^−1), 20 nM enz.
[8] = read-out: CDK7 (20 nM enz.) (kinact/ KI, M^−1*s^−1), 20 nM enz.
[9] = read-out: CDK7 (20 nM enz.) (kobs/[I], M^−1*s^−1), 20 nM enz.

Chain of CDK7/cyclinH/MAT1 trimeric complex (P50613 whole entry): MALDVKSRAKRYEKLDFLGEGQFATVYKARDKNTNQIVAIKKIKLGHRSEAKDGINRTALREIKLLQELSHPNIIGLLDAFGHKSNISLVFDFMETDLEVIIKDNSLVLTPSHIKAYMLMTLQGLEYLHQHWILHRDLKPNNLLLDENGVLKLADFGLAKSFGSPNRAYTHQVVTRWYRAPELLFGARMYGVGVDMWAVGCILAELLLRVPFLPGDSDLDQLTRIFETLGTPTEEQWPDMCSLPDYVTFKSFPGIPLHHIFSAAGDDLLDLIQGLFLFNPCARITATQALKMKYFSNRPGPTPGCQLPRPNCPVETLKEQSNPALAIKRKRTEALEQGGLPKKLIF
Chain of CDK7/cyclinH/MAT1 trimeric complex (P51946 whole entry partner): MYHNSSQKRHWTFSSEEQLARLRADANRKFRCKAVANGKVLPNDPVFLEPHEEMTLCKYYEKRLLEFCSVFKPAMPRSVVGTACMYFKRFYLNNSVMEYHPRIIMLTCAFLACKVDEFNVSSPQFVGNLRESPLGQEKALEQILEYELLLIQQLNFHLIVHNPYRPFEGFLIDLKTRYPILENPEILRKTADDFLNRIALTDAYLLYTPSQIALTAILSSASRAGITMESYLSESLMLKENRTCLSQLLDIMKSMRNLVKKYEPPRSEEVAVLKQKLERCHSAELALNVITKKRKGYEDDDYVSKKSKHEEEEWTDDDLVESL
Chain of CDK7/cyclinH/MAT1 trimeric complex (P51948 whole entry partner): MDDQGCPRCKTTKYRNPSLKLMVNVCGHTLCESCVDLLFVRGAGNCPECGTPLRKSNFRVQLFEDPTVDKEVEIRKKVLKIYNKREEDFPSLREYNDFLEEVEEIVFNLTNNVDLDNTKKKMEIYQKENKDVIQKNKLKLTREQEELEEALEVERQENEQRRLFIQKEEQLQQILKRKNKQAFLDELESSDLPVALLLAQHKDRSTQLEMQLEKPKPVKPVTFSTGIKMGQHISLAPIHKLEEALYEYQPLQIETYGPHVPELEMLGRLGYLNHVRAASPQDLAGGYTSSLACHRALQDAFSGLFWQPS

| Compound | melting point [°C] | IC50 [1] | Ki ([2]; CDK7 (KI(μM)), Table B) | kinact [2, 4] [s⁻¹] | kinact/KI [2, 5] [M⁻¹ s⁻¹] | IC50 [3] [nM] | Ki [2, 6] | kinact [2, 7] [s⁻¹] | kinact/KI [2, 8] [M⁻¹ s⁻¹] | kinact/KI [2, 9] [M⁻¹ s⁻¹] | CDK7 (kinact, s^−1) ([2]; Table B) [s⁻¹] | CDK7 (kinact/KI, M^−1*s^−1) ([2]; Table B) [M⁻¹ s⁻¹] | CDK7 (20 nM enz.) (kinact/ KI, M^−1*s^−1) ([2]; 20 nM enz.) | CDK7 (20 nM enz.) (kinact, s^−1) ([2]; 20 nM enz.) | CDK7_ A549 mutant hCDK7(pIC50) ([3]; A549 cells overexpressing CDK7 mutant (C312S)) |
| --- | --- | --- | --- | --- | --- | --- | --- | --- | --- | --- | --- | --- | --- | --- | --- |
| C=CC(=O)N1CC(C2CCN(c3ccc4c(c3)Nc3ncnc(N5CCOCC5)c3CO4)CC2)C1 [compound 7] | 234 | 6760 nM | 1.79 µM | 0.000178 | 99.5 | > 10000 |  |  |  |  |  |  |  |  |  |
| C=CC(=O)N1CCC(N2CC(c3cc(C)c4c(c3)Nc3ncnc(N5CCOCC5)c3CO4)C2)CC1 [compound 14] | 191 | 468 nM |  |  |  | > 10000 | 0.183 µM | 3.46e-05 | 189 |  |  |  |  |  |  |
| C=CC(=O)N1CCC(N2CC(c3cc(C)c4c(c3)Nc3ncnc(N5CCOCC5)c3CO4)C2)C1 (stereo not shown) [compound 16] | 151 | 457 nM |  |  |  | > 10000 | 0.192 µM | 5.05e-05 | 263 |  |  |  |  |  |  |
| C=CC(=O)N1CC(N2CCC(c3cc(C)c4c(c3)Nc3ncnc(N5CCS(=O)(=O)CC5)c3[C@H](C)O4)CC2)C1 [compound 32] | > 300 | ~12.6 nM |  |  |  | > 10000 | 0.0249 µM | 4.14e-05 | 1660 | 1280 |  |  |  |  |  |
| C=CC(=O)N1CC(N2CCC(c3ccc4c(c3)Nc3ncnc(N5CCOCC5)c3CO4)CC2C)C1 (stereo not shown) [compound 34] | 213 | 1000 nM | 0.258 µM | 0.000186 | 721 | > 10000 |  |  |  |  |  |  |  |  |  |
| C=CC(=O)N1CC(N2CCCC(c3ccc4c(c3)Nc3ncnc(N5CCOCC5)c3CO4)C2)C1 (stereo not shown) [compound 35] | 175 | ~7940 nM | 2.05 µM | 8.56e-05 | 41.8 | > 10000 |  |  |  |  |  |  |  |  |  |
| C=CC(=O)N1CC(N2CC[C@@H](c3ccc4c(c3)Nc3ncnc(N5CCOCC5)c3CO4)[C@@H](C)C2)C1 [compound 36] | 232 | 741 nM and 479 nM | 0.0803 µM and 0.233 µM | 8.19e-05 | 1020 | > 10000 |  |  |  |  | 0.0001256 | 539.8 |  |  |  |
| C=CC(=O)N1CC(N2CCC(c3ccc4c(c3)Nc3ncnc(C5=CCOCC5)c3CO4)CC2)C1 [compound 39] | 243 | 2240 nM |  |  |  | > 10000 | 0.61 µM | 5.09e-05 | 83.4 |  |  |  |  |  |  |
| C=CC(=O)N1CC(N2C3CCC2CC(c2ccc4c(c2)Nc2ncnc(N5CCOCC5)c2CO4)C3)C1 (stereo not shown) [compound 40] | 212 | 437 nM |  |  |  | > 10000 | 0.16 µM | 5.56e-05 |  |  |  |  | 347 M⁻¹ s⁻¹ |  |  |
| C=CC(=O)N1CC(N2C3CCC2CC(c2ccc4c(c2)Nc2ncnc(N5CCOCC5)c2CO4)C3)C1 (stereo not shown) [compound 41] | 208 | 1200 nM and 1320 nM |  |  |  |  | 0.991 µM and 0.898 µM |  |  |  |  |  | 56 M⁻¹ s⁻¹ and 58.5 M⁻¹ s⁻¹ | 5.55e-05 s⁻¹ and 5.25e-05 s⁻¹ | <5 |
| C=CC(=O)N1CC(N2CCC(c3cc(Cl)c4c(c3)Nc3ncnc(N5CCOCC5)c3CO4)CC2)C1 [compound 42] | > 300 | 372 nM |  |  |  | > 10000 | 0.0282 µM | 4.14e-05 | 1460 |  |  |  |  |  |  |
| C=CC(=O)N1CC(N2CCC(c3cc(Cl)c4c(c3)Nc3ncnc(N5CCS(=O)(=O)CC5)c3CO4)CC2)C1 [compound 43] | 296 | 132 nM |  |  |  | > 10000 |  |  |  | 1490 |  |  |  |  |  |
| C=CC(=O)N1CCC(N2CC(c3cc4c(c(C(F)(F)F)c3)OCc3c(ncnc3-c3cnn(C)c3)N4)C2)CC1 [compound 44] | 178 | 1170 nM |  |  |  | > 10000 | 0.67 µM | 4.31e-05 | 64.4 |  |  |  |  |  |  |
| C=CC(=O)N1CCC(N2CC(c3cc4c(c(C(F)(F)F)c3)OCc3c(ncnc3N3CCOCC3)N4)C2)CC1 [compound 45] | 158 | 427 nM |  |  |  | > 10000 | 0.219 µM | 4.44e-05 | 203 |  |  |  |  |  |  |
| C=CC(=O)N1CC(N2CCC(c3cc4c(cn3)OCc3c(ncnc3N3CCOCC3)N4)CC2)C1 [compound 48] | 220 | 776 nM |  |  |  | > 10000 | 0.232 µM | 5.9e-05 | 254 |  |  |  |  |  |  |
| C=CC(=O)N1CC(N2CCC(c3cc4c(c(C)n3)OCc3c(ncnc3N3CCS(=O)(=O)CC3)N4)CC2)C1 [compound 58] | 257 | 288 nM |  |  |  | > 10000 | 0.0451 µM | 5.57e-05 | 1240 |  |  |  |  |  |  |

| Compound | melting point [°C] | IC50 [1] | Ki ([2]; CDK7 (KI(μM)), Table B) | kinact [2, 4] [s⁻¹] | kinact/KI [2, 5] [M⁻¹ s⁻¹] | IC50 [3] [nM] | Ki [2, 6] | kinact [2, 7] [s⁻¹] | kinact/KI [2, 8] [M⁻¹ s⁻¹] | kinact/KI [2, 9] [M⁻¹ s⁻¹] | CDK7 (kinact, s^−1) ([2]; Table B) [s⁻¹] | CDK7 (kinact/KI, M^−1*s^−1) ([2]; Table B) [M⁻¹ s⁻¹] | CDK7 (20 nM enz.) (kinact/ KI, M^−1*s^−1) ([2]; 20 nM enz.) | CDK7 (20 nM enz.) (kinact, s^−1) ([2]; 20 nM enz.) | CDK7_ A549 mutant hCDK7(pIC50) ([3]; A549 cells overexpressing CDK7 mutant (C312S)) |
| --- | --- | --- | --- | --- | --- | --- | --- | --- | --- | --- | --- | --- | --- | --- | --- |
| C=CC(=O)N1CCC(N2CCC(c3cc4c(c(C)n3)OCc3c(ncnc3N3CCS(=O)(=O)CC3)N4)CC2)CC1 [compound 59] | 259 | 151 nM |  |  |  | > 10000 | 0.0715 µM | 5.06e-05 | 708 |  |  |  |  |  |  |
| C=CC(=O)N1CC(N2CCC(c3cc4c(cc3C#N)OCc3c(ncnc3N3CCOCC3)N4)CC2)C1 [compound 61] | > 300 | 2000 nM |  |  |  | > 10000 | 0.83 µM | 5.1e-05 | 61.4 |  |  |  |  |  |  |
| C=CC(=O)N1CCC(N2CC(c3cc4c(c(C)n3)OCc3c(ncnc3N3CCS(=O)(=O)CC3)N4)C2)CC1 [compound 63] | 190 | 1700 nM |  |  |  | > 10000 | 0.174 µM | 3.22e-05 | 186 |  |  |  |  |  |  |
| C=CC(=O)N1CC(N2CC(c3cc4c(c(C)n3)OCc3c(ncnc3N3CCS(=O)(=O)CC3)N4)C2)C1 [compound 64] | > 300 | 7240 nM |  |  |  | > 10000 | 0.427 µM | 4.81e-05 | 113 |  |  |  |  |  |  |
| C=CC(=O)N1CC(N2CCC(c3ccc4c(c3)Nc3ncnc(N5CCOCC5)c3C(CC)O4)CC2)C1 (stereo not shown) [compound 66] | 118 | 933 nM |  |  |  | > 10000 | 0.528 µM | 4.52e-05 | 85.5 |  |  |  |  |  |  |
| C=CC(=O)N1CC(N2CCN(c3cc4c(cn3)OCc3c(ncnc3N3CCOCC3)N4)CC2)C1 [compound 71] | 256 | 1350 nM |  |  |  | > 10000 | 3.2 µM | 7.12e-05 | 22.2 |  |  |  |  |  |  |
| C=CC(=O)N1CCC(N2CC(c3cc4c(c(C)n3)OCc3c(ncnc3N3CCS(=O)(=O)CC3)N4)C2)C1 (stereo not shown) [compound 77] | > 300 | 4070 nM |  |  |  | > 10000 | 0.172 µM | 3.83e-05 | 223 |  |  |  |  |  |  |
| C=CC(=O)N1CCC(N2CC(c3cc(C)c4c(c3)Nc3ncnc(N5CCS(=O)(=O)CC5)c3CO4)C2)CC1 [compound 87] | 200 | 81.3 nM |  |  |  | 7760 | 0.234 µM | 4.3e-05 | 184 |  |  |  |  |  |  |
| C=CC(=O)N1CCC(N2CCC(c3cc(C)c4c(c3)Nc3ncnc(N5CCS(=O)(=O)CC5)c3CO4)CC2)CC1 [compound 88] | 256 | 34.7 nM |  |  |  | 8130 | 0.0485 µM | 4.48e-05 | 923 |  |  |  |  |  |  |
| C=CC(=O)N1CCC(N2CCN(c3cc(C)c4c(c3)Nc3ncnc(N5CCS(=O)(=O)CC5)c3CO4)CC2)CC1 [compound 89] | 203 | 955 nM |  |  |  | > 10000 | 0.128 µM | 5.45e-05 | 425 |  |  |  |  |  |  |
| C=CC(=O)N1CCN(C2CCN(c3cc(C)c4c(c3)Nc3ncnc(N5CCS(=O)(=O)CC5)c3CO4)CC2)CC1 [compound 91] | 267 | 110 nM |  |  |  | > 10000 | 0.0406 µM | 5.75e-05 | 1420 |  |  |  |  |  |  |
| C=CC(=O)N1CC(N2CCC(c3cc(C)c4c(c3)Nc3ncnc(N5CC(CO)C5)c3CO4)CC2)C1 [compound 107] | 180 | 3890 nM |  |  |  | > 10000 | 0.96 µM | 5.21e-05 | 54.3 |  |  |  |  |  |  |
| CC#CC(=O)N1CCC(N2CC(c3cc(C)c4c(c3)Nc3ncnc(N5CCS(=O)(=O)CC5)c3CO4)C2)CC1 [compound 133] | 180 | 91.2 nM |  |  |  | 8510 | 0.173 µM | 2.65e-05 | 153 |  |  |  |  |  |  |
| CC#CC(=O)N1CCC(N2CCN(c3cc(C)c4c(c3)Nc3ncnc(N5CCS(=O)(=O)CC5)c3CO4)CC2)CC1 [compound 136] | 240 | 257 nM |  |  |  | > 10000 | 0.0874 µM | 5.36e-05 | 613 |  |  |  |  |  |  |
| CC#CC(=O)N1CCN(C2CCN(c3cc(C)c4c(c3)Nc3ncnc(N5CCS(=O)(=O)CC5)c3CO4)CC2)CC1 [compound 137] | 267 | 166 nM |  |  |  | > 10000 | 0.254 µM | 9.43e-05 | 372 |  |  |  |  |  |  |
| CC#CC(=O)N1CC(N2CCC(c3cc(C)c4c(c3)Nc3ncnc(N5CCS(=O)(=O)CC5)c3CO4)CC2)C1 [compound 151] | 189 | 115 nM |  |  |  | > 10000 | 0.16 µM | 5.91e-05 | 370 |  |  |  |  |  |  |
